Earlier results on three substances are cited in article PMC2192333 (The Journal of Experimental Medicine, 1996).

Data set [1] relates to C3bi. As to conditions: mutation in CD11b.
The test system of data set [2] is ICAM-3.
Data set [3] relates to human ICAM-1.

In the case of “Asp-140GlySer to AlaGlyAla: mutation of the closely related integrin CD11b”, the “binding to C3bi” value in data set [1] was “abohshed binding to C3bi”.

In the case of “CD11d/CD18: recently described fourth member of the CD18 integrins”, the “binding to ICAM-3” value in data set [2] is “high affinity”.

On to “murine LFA-1: murine leukocyte integrin LFA-1”, for which, in data set [3], the “binding of murine LFA-1 to human ICAM-1” value is reported as “does not bind human ICAM-1”.
